The values below come from patent publication US7968548B2, “Melanocortin receptor-specific piperazine compounds with diamine groups” (Palatin Technologies, Inc., priority 2005, dated 2011).

Experiment [1] addresses T1, MC4-R (Homo sapiens, UniProt P32245). The experiment is described as follows: Competitive inhibition binding assay using [I125]-NDP-α-MSH, HEK-293 membranes, recombinant hMC4-R. Set-up: expressed in transfected cells; host or cells: HEK-293. The essentials: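 Binding to human recombinant MC4-R was measured by competitive inhibition using membrane homogenates from HEK-293 cells expressing the receptor, in 96 well GF/B Millipore multiscreen filtration plates (MAFB NOB10) pre-coated with 0.5% bovine serum albumin (Fraction V). Mixtures were incubated 60 minutes at 37° C., filtered, washed three times with ice-cold buffer, and dried filters gamma-counted. Specific binding used 1 μM NDP-α-MSH; triplicate means were taken, Ki fitted in Graph-Pad Prism®.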

The target of the next experiment is T2, hMC1-R (Homo sapiens, UniProt Q01726).
T2 construct: expressed in transfected cells; host or cells: HEK-293
T2 sequence (Q01726 whole entry): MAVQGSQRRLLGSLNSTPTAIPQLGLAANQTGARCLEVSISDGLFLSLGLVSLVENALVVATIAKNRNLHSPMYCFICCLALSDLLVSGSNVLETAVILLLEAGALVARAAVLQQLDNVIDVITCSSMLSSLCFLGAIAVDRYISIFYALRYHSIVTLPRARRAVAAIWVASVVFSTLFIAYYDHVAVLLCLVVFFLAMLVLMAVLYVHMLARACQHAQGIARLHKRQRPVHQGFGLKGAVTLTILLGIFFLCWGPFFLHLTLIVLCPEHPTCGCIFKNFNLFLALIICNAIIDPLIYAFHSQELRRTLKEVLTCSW
The experiment is described as follows: Competitive inhibition binding assay using [I125]-NDP-α-MSH, HEK-293 membranes, recombinant hMC1-R. The conditions noted are these: human recombinant MC1-R. The essentials: (§1)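 Membranes from B-16 mouse melanoma cells (endogenous MC1-R) or HEK-293 cells expressing recombinant human MC1-R, MC3-R or MC5-R, competed against [I125]-NDP-α-MSH; 60 min at 37° C, filtration, gamma counting. Nonspecific binding defined with 1 μM NDP-α-MSH; triplicates; Ki from curve fitting.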

The target in another experiment is T3, MC3-R (Homo sapiens, UniProt P41968).
T3 construct: expressed in transfected cells; host or cells: HEK-293
T3 sequence (P41968 whole entry): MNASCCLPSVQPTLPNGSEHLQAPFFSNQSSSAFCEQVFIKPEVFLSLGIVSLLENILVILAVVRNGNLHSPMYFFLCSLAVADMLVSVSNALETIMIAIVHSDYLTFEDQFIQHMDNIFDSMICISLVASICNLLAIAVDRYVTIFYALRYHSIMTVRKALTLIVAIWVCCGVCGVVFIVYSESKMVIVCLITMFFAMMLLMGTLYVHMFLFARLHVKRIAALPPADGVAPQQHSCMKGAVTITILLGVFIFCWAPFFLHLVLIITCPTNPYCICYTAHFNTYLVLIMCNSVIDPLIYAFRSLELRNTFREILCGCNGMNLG
The experiment is described as follows: Competitive inhibition binding assay using [I125]-NDP-α-MSH, HEK-293 membranes, recombinant hMC3-R. The method in brief:
as §1

A short description of experiment [2]: Mouse model IP feeding studies in fasted animals (food intake). In kind it is in vivo. The following applies: 3 mg/kg, 20 hours. The procedure:
(§2) Food intake and body weight after IN and IP dosing. Changes in food intake and body weight were evaluated for selected compounds. Male C57BL/6 mice were obtained from Jackson labs (Bar Harbor, Me.). Animals were individually housed in conventional plexiglass hanging cages and maintained on a controlled 12 hour on/off light cycle. Water and pelleted (Harlan Teklad 2018 18% Protein Rodent Diet) food was provided ad libitum. The mice were dosed IP (by intraperitoneal injection) after a 24 hour fast or IN (by intranasal administration) with vehicle or selected compounds (0.1-3 mg/kg, and in some cases up to 10 mg/kg). All animals were dosed once a day (or up to four consecutive days) at the start of the “lights off” period. The changes in food intake for the 4 hour and 20 hour period after dosing relative to control animals administered vehicle were determined. Body weights were determine 4 hours prior to dosing and 20 hours after dosing, and the change in body weight relative to control animals administered vehicle were determined.

The nature of experiment [3]: Mouse model IN feeding studies (body weight). The conditions noted are these: 20 hours. It counts as in vivo. The procedure: as §2
A further experiment addresses T4, MC5-R (Homo sapiens, UniProt P33032).
T4 construct: expressed in transfected cells; host or cells: HEK-293
The experiment is described as follows: Competitive inhibition binding assay using [I125]-NDP-α-MSH, HEK-293 membranes, recombinant hMC5-R. The essentials:
as §1

In experiment [4] the target is T1, MC4-R. The experiment is described as follows: Competitive binding assay using [I125]-AgRP (83-132). The arrangement: expressed in transfected cells. The conditions noted are these: hMC4-R membranes. The procedure: Competitive binding assay using [I^125]—AgRP (83-132). Competitive binding studies using [I^125]—AgRP (83-132) were carried out using membrane homogenates isolated from cells that express hMC4-R. The assays were performed in 96-well GF/B Millipore multiscreen filtration plates (MAFB NOB10) pre-coated with 0.5% bovine serum albumin (Fraction V). The assay mixture contained 25 mM HEPES buffer (pH 7.5) with 100 mM NaCl, 2 mM CaCl2, 2 mM MgCl2, 0.3 mM 1,10-phenanthroline, 0.5% bovine serum albumin, membrane homogenates, radioligand [I^125]—AgRP (83-132) (Perkin Elmer) and increasing concentrations of compounds in a total volume of 200 μL. Binding was measured at radioligand concentrations of 0.2 nM. After incubating for 1 hour at 37° C., the reaction mixture was filtered and washed with assay buffer containing 500 mM NaCl. The dried discs were punched out from the plate and counted on a gamma counter. […] Ki values for test compounds were determined using Graph-Pad Prism® curve-fitting software.

In a further experiment the target is T5, MC1-R (Mus musculus, UniProt Q01727).
T5 construct: from B-16 mouse melanoma cells (containing endogenous MC1-R); endogenous in cells; host or cells: B-16 mouse melanoma cells (membrane homogenates)
T5 sequence (Q01727 whole entry): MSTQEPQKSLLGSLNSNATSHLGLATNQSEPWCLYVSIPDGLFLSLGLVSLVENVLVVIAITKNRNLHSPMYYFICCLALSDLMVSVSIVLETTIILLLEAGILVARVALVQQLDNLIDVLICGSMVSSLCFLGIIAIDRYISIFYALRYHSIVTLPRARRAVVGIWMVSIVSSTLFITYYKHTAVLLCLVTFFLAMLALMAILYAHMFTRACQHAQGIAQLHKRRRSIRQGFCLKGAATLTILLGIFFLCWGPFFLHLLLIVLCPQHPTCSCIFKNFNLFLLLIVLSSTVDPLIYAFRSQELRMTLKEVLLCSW
The experiment is described as follows: Competitive inhibition binding assay using [I125]-NDP-α-MSH, B-16 mouse melanoma cell membranes. The following applies: B-16 mouse melanoma cells. The procedure: A competitive inhibition binding assay was performed using membrane homogenates prepared from HEK-293 cells that express recombinant hMC4-R, hMC3-R, or hMC5-R, and from B-16 mouse melanoma cells (containing endogenous MC1-R). In some instances, HEK-293 cells that express recombinant hMC1-R were employed. In the examples that follow, all MC3-R, MC4-R and MC5-R values are for human recombinant receptors. MC1-R values are for B-16 mouse melanoma cells, unless the heading is “hMC1-R”, in which case the value is for human recombinant MC1-R. Assays were performed in 96 well GF/B Millipore multiscreen filtration plates (MAFB NOB10) pre-coated with 0.5% bovine serum albumin (Fraction V). […] After incubation for 60 minutes at 37° C., the assay mixture was filtered and the membranes washed three times with ice-cold buffer. Filters were dried and counted in a gamma counter for bound radioactivity. […] Maximal specific binding (100%) was defined as the difference in radioactivity (cpm) bound to cell membranes in the absence and presence of 1 μM NDP-α-MSH. […] Each assay was conducted in triplicate and the actual mean values are described, with results less than 0% reported as 0%. Ki values for test compounds were determined using Graph-Pad Prism® curve-fitting software.

Experiment [5] has as its target T1, MC4-R. The experiment is described as follows: Assay for agonist activity: cAMP accumulation in HEK-293 cells that express MC4-R. The following applies: HEK293; cell line that expresses MC4-R; relative to NDP-α-MSH; read-out: maximum effect observed, % of the maximum achieved with NDP-α-MSH (cAMP). Set-up: expressed in transfected cells; host or cells: HEK-293. In kind it is cell-based. The procedure:
Assay for agonist activity. Accumulation of intracellular cAMP was examined as a measure of the ability of the test compounds to elicit a functional response in HEK-293 cells that express MC4-R. Confluent HEK-293 cells that express recombinant hMC4-R were detached from culture plates by incubation in enzyme-free cell dissociation buffer. Dispersed cells were suspended in Earle's Balanced Salt Solution containing 10 mM HEPES (pH 7.5), 1 mM MgCl2, 1 mM glutamine, 0.5% albumin and 0.3 mM 3-isobutyl-1-methyl-xanthine (IBMX), a phosphodiesterase inhibitor. The cells were plated in 96-well plates at a density of 0.5×10^5 cells per well and pre-incubated for 30 minutes. Cells were exposed for 1 hour at 37° C. to test compounds dissolved in DMSO (final DMSO concentration of 1%) at a concentration range of 0.05-5000 nM in a total assay volume of 200 μL. NDP-α-MSH was used as the reference agonist. At the end of the incubation period, cells were disrupted by the addition of 50 μL of lysis buffer (cAMP EIA kit, Amersham) followed by vigorous pipetting. Levels of cAMP in the lysates were determined using a cAMP EIA kit (Amersham). Data analysis was performed by nonlinear regression analysis with Graph-Pad Prism® software. The maximum efficacies of the test compounds were compared to that achieved by the reference melanocortin agonist NDP-αMSH.
(In general: Changes in cAMP serve as a functional read-out for many G protein-coupled receptors.)

T1 sequence (P32245 whole entry): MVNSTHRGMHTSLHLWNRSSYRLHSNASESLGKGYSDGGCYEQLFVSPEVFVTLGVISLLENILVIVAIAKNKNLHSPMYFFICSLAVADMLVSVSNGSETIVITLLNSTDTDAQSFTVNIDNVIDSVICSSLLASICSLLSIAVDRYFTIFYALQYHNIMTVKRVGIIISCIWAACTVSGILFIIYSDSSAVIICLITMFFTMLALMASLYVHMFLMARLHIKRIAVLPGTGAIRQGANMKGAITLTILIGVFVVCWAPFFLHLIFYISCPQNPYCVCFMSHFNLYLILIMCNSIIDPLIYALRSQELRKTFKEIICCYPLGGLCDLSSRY
T4 sequence (P33032 whole entry): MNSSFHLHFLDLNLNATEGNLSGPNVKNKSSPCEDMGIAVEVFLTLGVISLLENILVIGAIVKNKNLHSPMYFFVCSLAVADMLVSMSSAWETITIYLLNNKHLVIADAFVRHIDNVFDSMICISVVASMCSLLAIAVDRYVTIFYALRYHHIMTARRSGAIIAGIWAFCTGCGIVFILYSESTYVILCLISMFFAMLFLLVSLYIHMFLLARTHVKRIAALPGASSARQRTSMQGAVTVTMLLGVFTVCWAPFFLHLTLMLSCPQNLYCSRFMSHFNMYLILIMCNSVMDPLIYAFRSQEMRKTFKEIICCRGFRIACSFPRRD

For the compound `CC(C)C[C@@H]1CN(C[C@H](N)Cc2ccc(Cl)cc2Cl)[C@@H](CCCNCCN)CN1C(=O)Cc1ccc2ccccc2c1` [Example 18, 1-{(2R,5S)-4-[(R)-2-Amino-3-(2,4-dichloro-phenyl)-propyl]-5-[3-(2-amino-ethylamino)-propyl]-2-isobutyl-piperazin-1-yl}-2-naphthalen-2-yl-ethanone], the Ki was 106 nM at MC4-R [1], 359 nM on hMC1-R, 297 nM on MC3-R and 188 nM at MC5-R. Moreover, in experiment [2], the “average decrease in food intake compared to control animals” value stood at 30%. Also, the “average decrease in body weight compared to control animals” value was 3% in experiment [3] (0.1 mg/kg), 3.5% in experiment [3] (0.3 mg/kg) and 6.2% in experiment [3] (1 mg/kg).

As for `CC(C)C[C@@H]1CN(C[C@H](N)Cc2ccc(Cl)cc2Cl)[C@@H](CCCCNCCN)CN1C(=O)Cc1ccc2ccccc2c1` [Example 2, 1-{(2R,5S)-4-[(R)-2-Amino-3-(2,4-dichloro-phenyl)-propyl]-5-[4-(2-amino-ethylamino)-butyl]-2-isobutyl-piperazin-1-yl}-2-naphthalen-2-yl-ethanone], the Ki on MC4-R [1] stood at 23 nM; at MC4-R [4] it was 72 nM; at MC3-R it was 190 nM; on MC1-R it was 558 nM; on MC5-R it was 143 nM. For the same compound, the “average decrease in food intake compared to control animals” value in [2] is given as 28%. Moreover, the “average decrease in body weight compared to control animals” value in experiment [3] (0.1 mg/kg) is 2.5%; in experiment [3] (0.3 mg/kg), 3%; in [3] (1 mg/kg) it was 4.7%. Moreover, the Emax at MC4-R [5] worked out at 16%.

For orientation: Ki means a measure of affinity in units of concentration, obtained from inhibition or displacement.
